Where “and” joins values, the source holds several entries; their conditions need not be identical. Identical values can stand only once. Marks after values point to notes of the source that are not given here.
Assays:
[1] = test system: plasma glucose; experiment: Example 5: plasma glucose pharmacodynamics; type: in vivo, human
Description: For insulin/4-CNAB treatment Groups 2 and 3, subjects' blood samples (1 drop per sample) were drawn at 15 minutes before dosing, and at 5, 10, 15, 20, 25, 30, 35, 40, and 50 minutes and at 1, 1.25, 1.5, 1.75, 2, 2.5, 3, 4, 6, 8 and 12 hours post-dose (21 samples per treatment for Insulin/4-CNAB dosing groups) for plasma glucose, insulin and C-peptide measurements. For the 4-CNAB alone treatment Group 1, blood samples were collected before dosing (−15 minutes), and at 30 minutes and at 2 hr post-dose for blood glucose measurements. For the insulin alone control group (minimum 3 subjects), blood samples (3 mL in sodium heparin tube) were drawn at 15 minutes before dosing, and at 10, 20, 30, 40, 50 minutes and 1, 1.25, 2, 2.5, 3 and 6 hr post-dose (12 samples per treatment). The blood samples for glucose were assayed in real time using a Glucometer®. These measurements were used for detection of onset of hypoglycemia, so rescue action could be taken where necessary. Plasma glucose, insulin and C-peptide measurements were done according to standard procedures.
Plasma glucose was measured based on a timed-endpoint method using a BECKMAN Synchron CX system that mixes exact proportions of reagents that catalyse the phosphorylation of glucose. The Synchron CX measures changes in the absorbance spectrum at 340 nm at a fixed time interval. The change in absorbance is directly proportional to the concentration of glucose in the sample.
On the basis of plasma concentrations of glucose, PD analysis was performed using WinNonlin™ Professional version 3.2. The profiles for glucose, glucose change from baseline and glucose percentage change from baseline were evaluated up to 6 hours as food was given 6 hours following insulin treatment. The following PD parameters were computed for plasma glucose concentration: AURC(0-2), AURC(0-t) (total response), Rmax (minimum value), tRmax and concentrations (R^b) and corresponding time (t^b) immediately prior to intervention for hypoglycemia. The following PD parameters were computed for plasma glucose concentration change from baseline: AUEC(0-2), AUEC(0-t) (baseline subtracted), Emax (baseline subtracted), tEmax (obtained without interpolation), percent change from baseline and concentrations (E^c) and corresponding time (t^c) immediately prior to intervention for hypoglycemia.
Similarly, in order to take into account baseline levels of glucose, PD analysis was conducted based on the percent change (decrease or increase) in glucose concentration from the baseline, where baseline was taken as the pre-dose concentration levels, rather than absolute values only. The glucose concentration percent change from baseline values were also calculated, and profiles were tabulated and plotted. Thus, […]

[2] = test system: aorta mRNA expression; experiment: GeneChip analysis of aorta mRNA expression after oral and SC dosing of insulin; type: in vivo, Sprague-Dawley rats; conditions: for Changes in aorta mRNA levels (control groups): component given orally alone
Description: A total of 60 male Sprague-Dawley rats were fasted for 24 hours and then anesthetized with Thorazine (1.5 mg/kg, im) and Ketamine (44 mg/kg, im). They were then divided into the following 5 treatment groups: • 1. H2O (p.o. 1 mL/kg) • 2. Carrier (p.o., 1 mL/kg; 200 mg/kg) • 3. Insulin (p.o., 1 ml/kg; 0.5 mg/kg) • 4. Insulin and Carrier (p.o., 1 ml/kg; 0.5 mg/kg Insulin and 200 mg/kg 1182) • 5. Insulin (s.c., 0.05 mg/kg) • There were twelve animals per group, with three being sacrificed at 30, 60, 120 and 180 minutes. For serum insulin and blood glucose monitoring, 0.4 mL of blood was drawn from the tail artery. Following euthanasia, an aorta sample was removed and snap-frozen in liquid nitrogen. All animal studies where conducted in accordance with the IACUC approved protocols.
Total RNA was prepared from the frozen tissue sample following the protocol for use of Trizol Reagent (Invitrogen, Inc., Carlsbad, Calif.). The samples were then further cleaned up by use of the Qiagen Midi Kit (Valencia, Calif.). Quality of each RNA sample was assessed using agarose gel electrophoresis and UV absorbance at 260 and 280. Acceptable RNA samples were pooled in equal quantities on a mass basis. This pooled sample was used to prepare cDNA following the protocol provided by Affymetrix. This sample was then used as template in an ii: vitro transcription labeling and amplification reaction using the Enzo BioArray High Yield RNA Transcript Labeling Kit (Affymetrix Inc., Santa Clara, Calif.). 15 μg of labeled transcript was then fragmented and used to prepare a hybridization solution as described in the Affymetrix GeneChip Protocol, Affymetrix, Inc., 2000.
The samples were hybridized to a Test Array and 5′ to 3′ ratios, detection limit, and image quality were assessed to ensure the quality of the labeled sample. Acceptable samples were then hybridized to an Affymetrix Rat U34A array. Washing and staining of these arrays was performed using the standard Affymetrix protocols. Array quality was assessed in the same manner as the Test array. Acceptable samples were analyzed both in the expression patterns seen across the group as well as pair wise in the following manner:
Fold change were determined by the Affymetrix Microarray Suite Software package and values below 2 fold were considered insignificant. This software package analysis compares the individual members of each probe set to determine a Difference Call. In this report all calculated fold changes are used in the figures, however in the results and discussion only those fold changes that received an Increasing or Decreasing call by the Affymetrix software were used to draw conclusions.

[3] = 150 Units oral insulin alone, all subjects
[4] = 150 Units oral insulin alone, non-hypoglycemic subjects
[5] = 10 Units SC, hypoglycemic subjects

With `O=C(O)CCCNC(=O)c1ccc(Cl)cc1O` [4-CNAB, 4-[(4-chloro, 2-hydroxybenzoyl)amino]butanoic acid] the “Effect on plasma glucose levels” value ([1]; 4-CNAB alone, oral) was “no significant effect on plasma glucose levels” and the “Changes in aorta mRNA levels (control groups)” value [2] was “no consistent and significant changes in mRNA levels in the aorta”.

With “oral insulin alone: recombinant human zinc insulin given orally without delivery agent” the “Change in glucose concentrations” value ([1]; 150 Units oral insulin alone) was “only a slight change in glucose concentrations”, the “Glucose change AUEC(0-2)” value [1, 3] was -0.63 ± 0.77 mmol·h/L and the “Glucose change from baseline Emax” value [1, 3] was -0.79 ± 0.43 mmol/L. For the same molecule, the “Glucose change tEmax, median” value [1, 3] was 6.00 h, the “Maximum % change of glucose from baseline up to 6 h” value (shortened to “Maximum % change of glucose”) [1, 3] was −12.41 ± 6.48% and the “Plasma glucose AURC(0-2)” value [1, 3] was 11.06 ± 0.69 mmol·h/L. The “Plasma glucose AURC(0-6)” value [1, 3] was 32.15 ± 1.41 mmol·h/L, the “Plasma glucose Rmax (minimum concentration)” value (“Plasma glucose Rmax” below) [1, 3] was 5.08 ± 0.20 mmol/L and the “Plasma glucose tRmax, median” value [1, 3] was 6.00 h. The “Glucose change AUEC(0-6)” value ([1]; 150 Units oral insulin alone, all subjects, AUEC(0-t) for 6 h sampling schedule) was −3.01 ± 2.44^d mmol · h/L, the “Glucose change AUEC(0-2)” value [1, 4] was -0.63 ± 0.77 mmol·h/L and the “Glucose change from baseline Emax” value [1, 4] was -0.79 ± 0.43 mmol/L. The “Glucose change tEmax, median” value [1, 4] was 6.00 h, the “Maximum % change of glucose” value [1, 4] was −12.41 ± 6.48% and the “Plasma glucose AURC(0-2)” value [1, 4] was 11.06 ± 0.69 mmol·h/L. The “Plasma glucose Rmax” value [1, 4] was 5.08 ± 0.20 mmol/L, the “Plasma glucose tRmax, median” value [1, 4] was 6.00 h and the “Glucose change AUEC(0-6)” value ([1]; 150 Units oral insulin alone, non-hypoglycemic subjects, AUEC(0-t) for 6 h sampling schedule) was −3.01 ± 2.44^d mmol · h/L. The “Plasma glucose AURC(0-6)” value ([1]; 150 Units oral insulin alone, non-hypoglycemic subjects, AURC(0-t) for 6 h sampling schedule) was 32.15 ± 1.41^c mmol · h/L and the “Changes in aorta mRNA levels (control groups)” value [2] was “no consistent and significant changes in mRNA levels in the aorta”.

For “SC insulin: human regular insulin injected subcutaneously (Humulin R or equivalent; Calbiochem insulin in the rat studies)”, the “% Max Glucose Reduction” value ([1]; 10 Units SC, carrier 0, unaudited data) was 32.3 ± 9.6%, the “Glucose change AUEC(0-2)” value ([1]; 10 Units SC, all subjects) was -0.71 ± 1.32 mmol·h/L and the “Glucose change AUEC(0-6)” value ([1]; 10 Units SC, all subjects) was -1.40 ± 4.41 mmol·h/L. For the same molecule, the “Glucose change from baseline Emax” value ([1]; 10 Units SC, all subjects) was -2.28 ± 0.5 mmol/L and -2.28 ± 0.40 mmol/L, the “Glucose change tEmax, median” value ([1]; 10 Units SC, all subjects) was 1.00 h and the “Maximum % change of glucose” value ([1]; 10 Units SC, all subjects) was −39.82±8.26%. For the same molecule, the “Plasma glucose AURC(0-2)” value ([1]; 10 Units SC, all subjects) was 10.40 ± 1.36 mmol·h/L, the “Plasma glucose AURC(0-6)” value ([1]; 10 Units SC, all subjects) was 32.02 ± 4.66 mmol·h/L and the “Plasma glucose Rmax” value ([1]; 10 Units SC, all subjects) was 3.31 ± 0.42 mmol/L. The “Plasma glucose tRmax, median” value ([1]; 10 Units SC, all subjects) was 1.00 h, the “Glucose change AUEC(0-6)” value [1, 5] was 1.00 mmol·h/L and the “Glucose change E^c (immediately prior to recovery from hypoglycemia)” value [1, 5] was -0.71 ± 1.32 mmol/L. For the same molecule, the “Glucose change from baseline Emax” value [1, 5] was -2.28 ± 0.40 mmol/L, the “Glucose change tEmax, median” value [1, 5] was 1.00 h and the “Maximum % change of glucose” value [1, 5] was −39.82 ± 8.26%. The “Plasma glucose AURC(0-2)” value [1, 5] was 10.40 ± 1.36 mmol·h/L, the “Plasma glucose AURC(0-6)” value [1, 5] was 32.02 ± 4.66 mmol·h/L and the “Plasma glucose R^b (immediately prior to recovery from hypoglycemia)” value [1, 5] was 3.45 ± 0.41 mmol/L. For the same molecule, the “Plasma glucose Rmax” value [1, 5] was 3.31 ± 0.42 mmol/L, the “Plasma glucose tRmax, median” value [1, 5] was 1.00 h and the “Plasma glucose t^b, median” value [1, 5] was 1.00 h. The “ICAM-1 mRNA” value ([2]; 180 minutes) was “increased”, the “c-myc mRNA” value ([2]; 180 minutes) was “significant increase” and the “IL-6 mRNA” value ([2]; vs sham) was “significant increase”.

— patent US7429564B2, “Oral insulin therapy” (Emisphere Technologies, Inc., priority 2002, dated 2008)
